In patent US8354455B2, “Prodrugs containing novel bio-cleavable linkers” (Piramal Enterprises Limited and Apparao Satyam, priority 2004, dated 2013):
“Also recorded” adds a separate entry of the source. Like-named read-outs stand apart in the source and are kept apart here. Marks after values point to notes of the source that are not given here.

Tests used:
mice = details: for Rotorod Toxicity 4.0 h / Rotorod Toxicity 0.5 h / Rotorod Toxicity (number of animals exhibiting toxicity/number of animals tested): mice, i.p.; for Rotorod Toxicity 4.0 h / Rotorod Toxicity 0.5 h: symbol = dose with toxicity; for toxicity (in words): Test 1, mice i.p.; for Rotorod Toxicity 0.5 h / Rotorod Toxicity (number of animals exhibiting toxicity/number of animals tested): 0.5 h
MES-induced seizures [1] = assay: Maximal Electroshock Test (MES), Test 1, mice i.p.; type: in vivo; details: for minimal effective dose: Mus musculus, ip; for minimal effective dose / MES 0.5 h / MES 4.0 h: symbol = dose with activity; for activity in MES model (in words): Test 1, mice i.p.; for MES, at 2 hours after dosing: 2 h (footnote h; printed in 4.0 h column)
convulsant metrazol = assay: Subcutaneous Metrazol Seizure Threshold Test (scMET), Test 1, mice i.p.; type: in vivo; details: for minimal effective dose: Mus musculus, ip; for minimal effective dose / ScMET 0.5 h / ScMET 4.0 h: symbol = dose with activity; for ScMET 0.5 h / ScMET 4.0 h / ScMET (number of animal protected/number of animal tested): mice, i.p.; for ScMET (number of animal protected/number of animal tested): 300 mg/kg (+)
rats = assay: Neurotoxicity, rats p.o. (Test 2 and Test 3); details: Test 2, rats p.o.
Text: Acute Toxicity—Minimal Motor Impairment (MMI): To assess a compound's undesirable side effects (toxicity), animals were monitored for overt signs of impaired neurological or muscular function.
Groups of at least 8 rats received various doses of the candidate compound until at least two points were established between the limits of 100 percent protection or toxicity and zero percent protection or minimal toxicity. The 95 percent confidence limits, slopes of the regression lines and standard errors of the slopes were calculated for each quantitative determination. Rats received test compounds orally.
This secondary evaluation determines the time to peak effect (TPE), neurotoxicity, median effective dose (ED50) and biological response.

MES-induced seizures [2] = assay: animal or person; type: in vivo, rats; details: Test 2, rats p.o., 150 mg/kg
[3] = 0.5 h, read-out: MES 0.5 h, mice, i.p., 0.5 h
[4] = 4 h, read-out: MES 4.0 h, mice, i.p., 4.0 h
[5] = 0.5 h, read-out: ScMET 0.5 h, mice, i.p., 0.5 h
[6] = 4 h, read-out: ScMET 4.0 h, mice, i.p., 4.0 h
[7] = mice, i.p., 4.0 h, 300 mg/kg (+)
[8] = mice, i.p., 0.5 h, 300 mg/kg (+)

| SMILES | Rotorod Toxicity 4.0 h (mice) | minimal effective dose (MES-induced seizures [1]; [3]) [mg/kg] | minimal effective dose (MES-induced seizures [1]; [4]) [mg/kg] | minimal effective dose (convulsant metrazol; [5]) [mg/kg] | minimal effective dose (convulsant metrazol; [6]) [mg/kg] | toxicity (in words) (mice) | Toxicity (number of animals exhibiting toxicity/number of animals tested) (rats; 30 mg/kg, 1.00 h) | Toxicity (number of animals exhibiting toxicity/number of animals tested) (rats; 30 mg/kg, 2.00 h) | Toxicity (number of animals exhibiting toxicity/number of animals tested) (rats; 30 mg/kg, 4.00 h) | activity in MES model (in words) (MES-induced seizures [1]) | MES (number of animal protected/number of animal tested) (MES-induced seizures [1]; [7]) | ScMET 0.5 h (convulsant metrazol; 0.5 h) | Rotorod Toxicity 0.5 h (mice) | Rotorod Toxicity (number of animals exhibiting toxicity/number of animals tested) (mice; 300 mg/kg (+)) | MES (number of animal protected/number of animal tested) (MES-induced seizures [1]; [8]) | ScMET (number of animal protected/number of animal tested) (convulsant metrazol; 0.5 h) | other results |
| --- | --- | --- | --- | --- | --- | --- | --- | --- | --- | --- | --- | --- | --- | --- | --- | --- | --- |
| CCOC(=O)CC1(CNC(=O)OCCSSCCO[N+](=O)[O-])CCCCC1 [I-A1-NOPD1] | — (— = no activity or no toxicity at 300 mg/kg) | < 300 | > 300 | > 300 | > 300 | – | – | – | – | – | – | – | – | – | – | – | MES, at 0.25 hours after dosing (MES-induced seizures [1]; mice, i.p., 0.25 h (footnote k; printed in 0.5 h column)): ++ (++ = activity or toxicity at 100 mg/kg) |
| CS(=O)(=O)NC(=O)OCCSSCCOC(=O)Nc1nnc(-c2cccc(Cl)c2Cl)c(N)n1 [I-A1-PD15] | – | – | – | – | – | no or mild toxicity | 0/4 | 0/4 | 0/4 | active in MES | (1/1) | — (— = no activity or no toxicity at 300 mg/kg) | – | – | – | – | Toxicity (number of animals exhibiting toxicity/number of animals tested) (rats; 30 mg/kg, 0.50 h): 0/4; ScMET 4.0 h (convulsant metrazol): — (— = no activity or no toxicity at 300 mg/kg) |
| CCOC(=O)CC1(CNC(=O)OCCSSCCOC(=O)NC(=O)[C@H](CC)N2CCCC2=O)CCCCC1 [I-AA-MPD13] | — (— = no activity or no toxicity at 300 mg/kg) | > 300 | > 300 | < 300 | > 300 | – | – | – | – | – | – | – | + (+ = activity or toxicity at 300 mg/kg) | – | – | – | – |
| Nc1nc(NC(=O)OCCSSCCOC(=O)NCC2(CC(=O)O)CCCCC2)nnc1-c1cccc(Cl)c1Cl [I-AA-MPD11] | — (— = no activity or no toxicity at 300 mg/kg) | > 300 | – | > 300 | > 300 | no or mild toxicity | 0/4 | 0/4 | 0/4 | active in MES | (1/1) | – | – | – | – | – | – |
| CCOC(=O)CC1(CNC(=O)OCCSSCCOC(=O)NC(CO)C(=O)OC)CCCCC1 (stereo not shown) [I-A1-PD6] | — (— = no activity or no toxicity at 300 mg/kg) | < 300 | > 300 | < 300 | > 300 | – | – | – | – | – | – | – | + (+ = activity or toxicity at 300 mg/kg) | (4/4)^i | (1/1) | (1/1) | – |
| Nc1nc(NC(=O)OCCSSCCOC(=O)c2cccnc2)nnc1-c1cccc(Cl)c1Cl [I-CA-MPD24] | — (— = no activity or no toxicity at 300 mg/kg) | – | – | – | – | non-toxic; also recorded: no or mild toxicity | 0/4 | 0/4 | 0/4 | active in MES | – | — (— = no activity or no toxicity at 300 mg/kg) | — (— = no activity or no toxicity at 300 mg/kg) | – | – | – | Toxicity (number of animals exhibiting toxicity/number of animals tested) (rats; 30 mg/kg, 0.50 h): 0/4; MES 0.5 h (MES-induced seizures [1]; mice, i.p., 0.5 h): — (— = no activity or no toxicity at 300 mg/kg); MES, at 2 hours after dosing (MES-induced seizures [1]; mice, i.p.): ++ (++ = activity or toxicity at 100 mg/kg); MES (number of animal protected/number of animal tested) (MES-induced seizures [1]; mice, i.p., 2 h after dosing, 100 mg/kg (++)): (3/3)^h; MES 4.0 h (MES-induced seizures [1]; mice, i.p., 4.0 h): ++ (++ = activity or toxicity at 100 mg/kg); MES, at 6 hours after dosing (MES-induced seizures [1]; mice, i.p., 6 h (footnotes g, m; printed in 4.0 h column)): ++ (++ = activity or toxicity at 100 mg/kg); MES (number of animal protected/number of animal tested) (MES-induced seizures [1]; mice, i.p., 6 h after dosing, 100 mg/kg (++)): (3/3)^m; activity in scMET model (in words) (convulsant metrazol; Test 1, mice i.p.): active |
| CCOC(=O)CC1(CNC(=O)OCCSSCCOC(C)=O)CCCCC1 [I-A1-PD13] | — (— = no activity or no toxicity at 300 mg/kg) | < 300 | > 300 | < 300 | > 300 | – | – | – | – | – | – | – | + (+ = activity or toxicity at 300 mg/kg) | (1/4) | (1/1) | (1/1) | – |
| CCOC(=O)CC1(CNC(=O)OCCSSCCOC(=O)NC(CCC(=O)OC)C(=O)OC)CCCCC1 (stereo not shown) [I-A1-PD7] | — (— = no activity or no toxicity at 300 mg/kg) | < 300 | > 300 | < 300 | > 300 | – | – | – | – | – | – | – | + (+ = activity or toxicity at 300 mg/kg) | (2/4)^d | (1/1) | (1/1)^e | – |
| CCCC(CCC)C(=O)OCCSSCCOC(=O)Nc1nnc(-c2cccc(Cl)c2Cl)c(N)n1 [I-CA-MPD23] | – | – | – | – | – | no or mild toxicity | – | – | – | active in MES | (1/3) | — (— = no activity or no toxicity at 300 mg/kg) | – | – | – | – | MES (number of animal protected/number of animal tested) (MES-induced seizures [2]; 4.00 h): 4/4; MES (number of animal protected/number of animal tested) (MES-induced seizures [2]; 6.00 h): 4/4; MES (number of animal protected/number of animal tested) (MES-induced seizures [2]; 8.00 h): 4/4; Toxicity (number of animals exhibiting toxicity/number of animals tested) (rats; 150 mg/kg, 2.00 h): 0/4; Toxicity (number of animals exhibiting toxicity/number of animals tested) (rats; 150 mg/kg, 4.00 h): 0/4; Toxicity (number of animals exhibiting toxicity/number of animals tested) (rats; 150 mg/kg, 6.00 h): 0/4; Toxicity (number of animals exhibiting toxicity/number of animals tested) (rats; 150 mg/kg, 8.00 h): 0/4; MES 0.5 h (MES-induced seizures [1]; mice, i.p., 0.5 h): — (— = no activity or no toxicity at 300 mg/kg); MES, at 2 hours after dosing (MES-induced seizures [1]; mice, i.p.): ++ (++ = activity or toxicity at 100 mg/kg); MES 4.0 h (MES-induced seizures [1]; mice, i.p., 4.0 h): + (+ = activity or toxicity at 300 mg/kg); ScMET 4.0 h (convulsant metrazol): — (— = no activity or no toxicity at 300 mg/kg) |
| CCOC(=O)CC1(CNC(=O)OCCSSCCOC(=O)NCCN(C)C)CCCCC1 [I-A1-PD10] | – | > 300 | > 300 | > 300 | > 300 | – | – | – | – | – | – | – | ++ (++ = activity or toxicity at 100 mg/kg) | – | – | – | Rotorod Toxicity (number of animals exhibiting toxicity/number of animals tested) (mice; 100 mg/kg (++)): (8/8)^j |
| CCOC(=O)CC1(CNC(=O)OCCSSCCO)CCCCC1 [I-A1-PD8] | — (— = no activity or no toxicity at 300 mg/kg) | – | > 300 | > 300 | > 300 | – | – | – | – | – | (1/1) | – | – | (4/4)^f | (1/1) | (1/1) | MES (number of animal protected/number of animal tested) (MES-induced seizures [1]; mice, i.p., 0.5 h, 100 mg/kg (++)): (2/3) |
| Cl.Nc1nc(NC(=O)OCCSSCCNC(=O)c2cccnc2)nnc1-c1cccc(Cl)c1Cl [I-CA-MPD25] | — (— = no activity or no toxicity at 300 mg/kg) | – | – | – | – | no or mild toxicity | 0/4 | 0/4 | 0/4 | active in MES | (1/1) | — (— = no activity or no toxicity at 300 mg/kg) | — (— = no activity or no toxicity at 300 mg/kg) | – | – | – | Toxicity (number of animals exhibiting toxicity/number of animals tested) (rats; 30 mg/kg, 0.50 h): 0/4; ScMET 4.0 h (convulsant metrazol): — (— = no activity or no toxicity at 300 mg/kg) |
